Values joined by “and” are separate entries in the source; they are usually repeats but may differ in a detail not shown here. Equal entries are not always repeated. Inconclusive results and toxic doses are left out. The calls were made as follows: active = survival T/C of 150% or more; inactive = T/C below 125% in these data.
System: P388 leukemia ip, CD2F1 mice, survival T/C
Assay: NCI In Vivo Anticancer Drug Screen. Data for tumor model P388 Leukemia (intraperitoneal) in CD2F1 (CDF1) mice
Conditions: endpoint: median survival time, higher = longer survival
In short: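 Mice carrying the transplanted tumor received test compound or vehicle. Survival was recorded in each group, and the value is the treated-group measurement divided by that of the vehicle-treated control group.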

[1] = dose: 50.0 mg/kg/injection, schedule: Q01DX009 (ip), vehicle: Klucel (hydroxypropylcellulose) (HPC)
[2] = dose: 100.0 mg/kg/injection, schedule: Q01DX009 (ip), vehicle: Klucel (hydroxypropylcellulose) (HPC)
[3] = dose: 200.0 mg/kg/injection, schedule: Q01DX009 (ip), vehicle: Klucel (hydroxypropylcellulose) (HPC)
[4] = dose: 12.5 mg/kg/injection, schedule: Q01DX009 (ip), vehicle: saline with Tween-80
[5] = dose: 25.0 mg/kg/injection, schedule: Q01DX009 (ip), vehicle: saline with Tween-80
[6] = dose: 50.0 mg/kg/injection, schedule: Q01DX009 (ip), vehicle: saline with Tween-80
[7] = dose: 50.0 mg/kg/injection, schedule: Q01DX005 (ip), vehicle: saline with Tween-80
[8] = dose: 100.0 mg/kg/injection, schedule: Q01DX005 (ip), vehicle: saline with Tween-80
[9] = dose: 200.0 mg/kg/injection, schedule: Q01DX005 (ip), vehicle: saline with Tween-80
[10] = dose: 60.0 mg/kg/injection, schedule: Q01DX005 (ip), vehicle: saline with Tween-80
[11] = dose: 100.0 mg/kg/injection, schedule: Q04DX002 (ip), vehicle: saline with Tween-80
[12] = dose: 200.0 mg/kg/injection, schedule: Q04DX002 (ip), vehicle: saline with Tween-80
[13] = dose: 120.0 mg/kg/injection, schedule: Q01DX005 (ip), vehicle: saline with Tween-80
[14] = dose: 240.0 mg/kg/injection, schedule: Q01DX005 (ip), vehicle: saline with Tween-80
[15] = dose: 100.0 mg/kg/injection, schedule: Q01DX009 (ip), vehicle: saline with Tween-80
[16] = dose: 200.0 mg/kg/injection, schedule: Q01DX009 (ip), vehicle: saline with Tween-80
[17] = dose: 60.0 mg/kg/injection, schedule: Q01DX005 (ip), vehicle: Klucel (hydroxypropylcellulose) (HPC)
[18] = dose: 120.0 mg/kg/injection, schedule: Q01DX005 (ip), vehicle: Klucel (hydroxypropylcellulose) (HPC)
[19] = dose: 0.78 mg/kg/injection, schedule: Q01DX009 (ip), vehicle: saline with Tween-80
[20] = dose: 1.56 mg/kg/injection, schedule: Q01DX009 (ip), vehicle: saline with Tween-80
[21] = dose: 6.25 mg/kg/injection, schedule: Q01DX009 (ip), vehicle: saline with Tween-80

Measured: T/C

COCCC1CN(C(C)C)C(=O)C1(c1ccccc1)c1ccccc1 (configuration not stated)
inactive: [1] 106 % of control | [2] 92 % of control | [3] 108 % of control

S=c1[nH]ccn1-c1c(Cl)cccc1Cl
inactive: [1] 99 % of control | [2] 100 % of control

Clc1ccc(OCCBr)cc1
inactive: dose: 50.0 mg/kg/injection, schedule: Q04DX003 (ip), vehicle: saline with Tween-80 105 % of control | dose: 100.0 mg/kg/injection, schedule: Q04DX003 (ip), vehicle: saline with Tween-80 101 % of control | dose: 200.0 mg/kg/injection, schedule: Q04DX003 (ip), vehicle: saline with Tween-80 105 % of control | dose: 400.0 mg/kg/injection, schedule: Q04DX003 (ip), vehicle: saline with Tween-80 99 % of control

O=C(Cc1ccccc1)NC1C(=O)N2c3c(CO)cccc3OCC12 (configuration not stated)
inactive: dose: 50.0 mg/kg/injection, schedule: Q01DX001 (ip), vehicle: saline with Tween-80 100 % of control | dose: 100.0 mg/kg/injection, schedule: Q01DX001 (ip), vehicle: saline with Tween-80 90 % of control | dose: 200.0 mg/kg/injection, schedule: Q01DX001 (ip), vehicle: saline with Tween-80 94 % of control

CCCCCCCCCCCCCCCCC[N+]1(CC)CCCCC1
inactive: dose: 0.39 mg/kg/injection, schedule: Q01DX009 (ip), vehicle: saline 111 % of control | dose: 0.78 mg/kg/injection, schedule: Q01DX009 (ip), vehicle: saline 116 % of control

CC12CCCCC1=Nc1ccc3ccccc3c12 (configuration not stated)
inactive: [4] 92 % of control | [5] 90 % of control | [6] 92 % of control

O=c1ccocc1OC1OC(CO)C(O)C(O)C1O (configuration not stated)
inactive: dose: 5.75 mg/kg/injection, schedule: Q01DX005 (ip), vehicle: saline 95 % of control | dose: 11.5 mg/kg/injection, schedule: Q01DX005 (ip), vehicle: saline 113 % of control | dose: 23.0 mg/kg/injection, schedule: Q01DX005 (ip), vehicle: saline 106 % of control | dose: 46.0 mg/kg/injection, schedule: Q01DX005 (ip), vehicle: saline 105 % of control

COc1cccc(CSCC(N)C(=O)O)c1 (configuration not stated)
inactive: [7] 104 % of control | [8] 104 % of control | [9] 90 % of control

O=[N+]([O-])c1ccc(SC(=S)N(c2ccccc2)c2ccccc2)c([N+](=O)[O-])c1
inactive: dose: 6.25 mg/kg/injection, schedule: Q01DX009 (ip), vehicle: Klucel (hydroxypropylcellulose) (HPC) 104 % of control | dose: 12.5 mg/kg/injection, schedule: Q01DX009 (ip), vehicle: Klucel (hydroxypropylcellulose) (HPC) 102 % of control | dose: 25.0 mg/kg/injection, schedule: Q01DX009 (ip), vehicle: Klucel (hydroxypropylcellulose) (HPC) 102 % of control | [1] 102 % of control

COc1cc(C2CC(C)(OC)Oc3cc4c(cc32)OCO4)cc(OC)c1O (configuration not stated)
inactive: dose: 15.0 mg/kg/injection, schedule: Q01DX005 (ip), vehicle: saline with Tween-80 90 % of control | dose: 30.0 mg/kg/injection, schedule: Q01DX005 (ip), vehicle: saline with Tween-80 88 % of control | [10] 89 % of control

CC(=O)CC(=O)c1c(-c2ccccc2)n(C)c2ccccc12
inactive: dose: 100.0 mg/kg/injection, schedule: Q01DX001 (ip), vehicle: Klucel (hydroxypropylcellulose) (HPC) 98 % of control | dose: 200.0 mg/kg/injection, schedule: Q01DX001 (ip), vehicle: Klucel (hydroxypropylcellulose) (HPC) 101 % of control | dose: 400.0 mg/kg/injection, schedule: Q01DX001 (ip), vehicle: Klucel (hydroxypropylcellulose) (HPC) 102 % of control

COC(=O)C1C(C2OC3OC(C)(C)OC3C3OC(C)(C)OC32)N1C(=O)Cl (configuration not stated)
inactive: [11] 102 % of control | [12] 103 % of control

Oc1ccccc1-c1cc(-c2ccccc2)nc(NCCCNc2nc(-c3ccccc3)cc(-c3ccccc3O)n2)n1
inactive: dose: 50.0 mg/kg/injection, schedule: Q01DX005 (ip), vehicle: Klucel (hydroxypropylcellulose) (HPC) 92 % of control | dose: 100.0 mg/kg/injection, schedule: Q01DX005 (ip), vehicle: Klucel (hydroxypropylcellulose) (HPC) 88 % of control | dose: 200.0 mg/kg/injection, schedule: Q01DX005 (ip), vehicle: Klucel (hydroxypropylcellulose) (HPC) 86 % of control

Cc1cc(C)nc(/C=C(\NC(=O)c2ccccc2)c2ccccc2)c1
inactive: [10] 108 % of control | [13] 102 % of control | [14] 101 % of control

O=C(O)C(O)(C1CCCCC1)C1CCC(C2CCCCC2)CC1C1CCCCC1 (configuration not stated)
inactive: [7] 98 % of control | [8] 102 % of control | [9] 100 % of control

Clc1ncccc1SSc1cccnc1Cl
inactive: [6] 104 % of control | [15] 100 % of control | [16] 104 % of control

C/C=C\c1noc2c1C(=O)OC(C)C2 (configuration not stated)
inactive: [10] 104 % of control | [13] 96 % of control | [14] 103 % of control

COc1ccccc1/C=N\NC(=O)C(=O)N/N=C\c1ccccc1OC
inactive: [1] 86 % of control | [2] 90 % of control | [3] 98 % of control

O=C(Nc1ccc(C2=NCCN2)c(O)c1)c1ccc(C(=O)Nc2ccc(C3=NCCN3)c(O)c2)cc1
inactive: [7] 99 % of control | [8] 103 % of control | [9] 107 % of control

COC(=O)c1c2cc(C(C)(C)C)cc-2c(N(C)C)nc(N(C)C)c1C(=O)OC
inactive: [17] 95 % of control | [18] 95 % of control

COCn1ncnc1C(=O)c1ccccc1
inactive: [6] 97 % of control | [15] 98 % of control | [16] 92 % of control

FC(F)(F)/C([S-])=C(/[S-])C(F)(F)F.FC(F)(F)/C([S-])=C(/[S-])C(F)(F)F.FC(F)(F)/C([S-])=C(/[S-])C(F)(F)F.FC(F)(F)/C([S-])=C(/[S-])C(F)(F)F.[Co+3].[Co+3]
inactive: dose: 33.0 mg/kg/injection, schedule: Q04DX003 (ip), vehicle: other 107 % of control | dose: 50.0 mg/kg/injection, schedule: Q04DX003 (ip), vehicle: other 100 % of control

COc1ccc(N=Cc2ccc(C=Nc3ccc(OC)cc3OC)cc2)c(OC)c1
inactive: dose: 50.0 mg/kg/injection, schedule: Q01DX009 (ip), vehicle: saline 93 % of control | dose: 100.0 mg/kg/injection, schedule: Q01DX009 (ip), vehicle: saline 96 % of control | dose: 200.0 mg/kg/injection, schedule: Q01DX009 (ip), vehicle: saline 91 % of control

CN1C=CC(C(O)(c2ccccc2)c2ccccc2)CC1 (configuration not stated)
inactive: [7] 99 % of control | [8] 97 % of control | [9] 100 % of control

Cc1ccc(S(=O)(=O)N=S(C)(C)=O)cc1
inactive: dose: 0.1 mg/kg/injection, schedule: Q01DX009 (ip), vehicle: saline with Tween-80 104 % of control | dose: 0.2 mg/kg/injection, schedule: Q01DX009 (ip), vehicle: saline with Tween-80 105 % of control and 108 % of control | dose: 0.39 mg/kg/injection, schedule: Q01DX009 (ip), vehicle: saline with Tween-80 99 % of control and 101 % of control | [19] 107 % of control | dose: 0.79 mg/kg/injection, schedule: Q01DX009 (ip), vehicle: saline with Tween-80 98 % of control | [20] 108 % of control and 120 % of control and 96 % of control | [21] 100 % of control and 105 % of control and 91 % of control | [4] 104 % of control and 88 % of control | [5] 97 % of control

O=S1(=O)C[CH-]C1.[C-]#[O+].[C-]#[O+].[C-]#[O+].[W].[c-]1[c-][c-][cH-][c-]1
inactive: [19] 98 % of control | [20] 93 % of control | dose: 3.13 mg/kg/injection, schedule: Q01DX009 (ip), vehicle: saline with Tween-80 94 % of control | [21] 93 % of control

CCCCNc1cc(-c2c(N)nc(N)nc2CC)ccc1[N+](=O)[O-]
inactive: [7] 101 % of control | [8] 101 % of control | [9] 94 % of control

C=Cn1c([N+](=O)[O-])cnc1/C=C/c1ccc(C(=O)NC)cc1
inactive: [11] 100 % of control | [12] 102 % of control | dose: 400.0 mg/kg/injection, schedule: Q04DX002 (ip), vehicle: saline with Tween-80 95 % of control

N#Cc1ccc(OC(=O)Nc2ccc(Br)cc2)cc1
inactive: [17] 115 % of control | [18] 114 % of control | dose: 240.0 mg/kg/injection, schedule: Q01DX005 (ip), vehicle: Klucel (hydroxypropylcellulose) (HPC) 108 % of control

From PubChem BioAssay AID330 (DTP/NCI, 2004)
